Columns and labels:
[1] = test system: Pulmonary Fibrosis Induced by Bleomycin in Rats; assay: Bleomycin-induced pulmonary fibrosis model in rats (Example 5); type: in vivo, SD rats; details: for Hydroxyproline Content: rat lung tissue, Mean ±SEM
Description: This study aims to compare the effects of different administration methods, including oral gavage of EGCG, tracheal nebulization of pirfenidone solution, and tracheal nebulization of EGCG at different doses, on the collagen content in lung tissues and pathological observations of rats with bleomycin-induced pulmonary fibrosis. The therapeutic effect of inhaled EGCG on rat pulmonary fibrosis was evaluated.
The solvents for the EGCG nebulization solution, modeling agents, and their solvents are as described in Example 4. The positive control drug is pirfenidone (purity 99%, pharmaceutical grade), with the solvent components consisting of NaCl and citric acid, forming a clear liquid.
SPF-grade SD rats, 6-9 weeks old with a weight of 200-300g, totaling 88 rats, were randomly divided into the following groups: • Sham operation group (normal control) (8 rats) • Pulmonary fibrosis model control group (10 rats) • Oral gavage EGCG group 1 (10 rats) • Oral gavage EGCG group 2 (10 rats) • Tracheal Nebulization EGCG solution groups 1-4 (10 rats per group, total 40 rats) • Tracheal Nebulization pirfenidone solution group (10 rats)
On D1, the normal control group was administered solvent 2 (saline injection solution, 1 mL/kg) via tracheal nebulization, while all other groups were administered bleomycin (2.5 mg/kg, 1 mL/kg) via tracheal nebulization twice a day (morning and afternoon) to establish the model. On D8, the body weights of the animals were recorded. From D10 to D28, the normal control and pulmonary fibrosis model groups were treated with solvent 1 via tracheal nebulization, while the remaining groups were administered EGCG or pirfenidone once daily at the following doses and administration methods: • Oral gavage EGCG group 1 and 2: 30 mg/kg, 60 mg/kg • Tracheal Nebulization EGCG group 1-4: 0.05 mg/kg, 0.4 mg/kg, 0.8 mg/kg, 1.6 mg/kg • Tracheal Nebulization pirfenidone solution group: 0.9 mg/kg (reference dose from M.W. Surber et al., ATS POSTER, 2014)
On D29, all animals were euthanized for dissection. During the necropsy, the lungs, trachea, and bronchi were examined for abnormalities. Left lung tissue was preserved at below -60°C for hydroxyproline content detection, and right lung tissue was prepared for pathological sectioning. Hematoxylin and eosin (HE) staining and Masson staining were performed for pathological morphological observations and fibrosis evaluation.
All groups were compared to the model group using statistical analysis via Kruskal-Wallis test. The results are indicated as follows: • *P < 0.05: statistically significant difference • **P < 0.01: highly significant difference • ***P < 0.001: extremely significant difference • ****P < 0.0001: extremely highly significant difference

[2] = target: T1, lysyl oxidase-like protein-2 (LOXL2) (Homo sapiens, UniProt Q9Y4K0); details: cited from earlier work
T1 sequence (Q9Y4K0 26-774): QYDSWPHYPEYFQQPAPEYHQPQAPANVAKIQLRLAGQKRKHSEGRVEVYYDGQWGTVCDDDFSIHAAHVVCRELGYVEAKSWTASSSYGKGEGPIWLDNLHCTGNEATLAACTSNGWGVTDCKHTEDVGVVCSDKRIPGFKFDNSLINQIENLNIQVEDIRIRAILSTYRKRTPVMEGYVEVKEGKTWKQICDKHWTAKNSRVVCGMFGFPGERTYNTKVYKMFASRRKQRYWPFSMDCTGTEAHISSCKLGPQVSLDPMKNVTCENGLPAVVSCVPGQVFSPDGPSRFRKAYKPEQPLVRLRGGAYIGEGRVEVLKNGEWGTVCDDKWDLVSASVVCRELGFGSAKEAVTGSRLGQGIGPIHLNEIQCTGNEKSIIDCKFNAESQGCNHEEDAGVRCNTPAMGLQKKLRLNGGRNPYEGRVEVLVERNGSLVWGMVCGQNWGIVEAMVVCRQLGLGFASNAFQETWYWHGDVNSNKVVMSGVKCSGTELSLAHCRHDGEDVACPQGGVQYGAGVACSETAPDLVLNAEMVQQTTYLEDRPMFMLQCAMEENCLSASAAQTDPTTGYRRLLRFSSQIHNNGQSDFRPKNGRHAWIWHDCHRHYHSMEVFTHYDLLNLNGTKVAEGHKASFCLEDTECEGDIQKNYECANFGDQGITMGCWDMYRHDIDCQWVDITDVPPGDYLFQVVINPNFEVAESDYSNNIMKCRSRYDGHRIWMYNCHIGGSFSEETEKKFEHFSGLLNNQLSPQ

Compound: O=C(O[C@@H]1Cc2c(O)cc(O)cc2O[C@@H]1c1cc(O)c(O)c(O)c1)c1cc(O)c(O)c(O)c1 [EGCG, (-)-Epigallocatechin gallate]
- hydroxyproline content in rat lungs, difference from the model group ([1]; inhalation 0.05 (P < 0.05), 0.4 (P < 0.0001), 0.8 and 1.6 mg/kg (P < 0.001)): significantly reduced
- hydroxyproline content in rat lungs, difference from the model group ([1]; oral administration 30 mg/kg, 60 mg/kg): not statistically significant
- Hydroxyproline Content ([1]; Inh 0.05mg/kg once daily D10 to D28): 0.528 ± 0.038 µg/µL
- Hydroxyproline Content ([1]; Inh 0.4mg/kg once daily D10 to D28): 0.433 ± 0.023 µg/µL
- Hydroxyproline Content ([1]; Inh 0.8mg/kg once daily D10 to D28): 0.485 ± 0.027 µg/µL
- Hydroxyproline Content ([1]; Inh 1.6 mg/kg once daily D10 to D28): 0.465 ± 0.028 µg/µL
- Hydroxyproline Content ([1]; PO 30mg/kg once daily D10 to D28): 0.608 ± 0.012 µg/µL
- Hydroxyproline Content ([1]; PO 60mg/kg once daily D10 to D28): 0.546 ± 0.026 µg/µL
- inhibition of LOXL2 [2]: effectively inhibit

Source: patent EP4623908A1, “USE OF (-)-EPIGALLOCATECHIN GALLATE COMPOUND” (CF Pharmtech, Inc., priority 2022, dated 2024)
